Measured values taken from patent publication US20090124631A1, “Combination Therapy” (priority 2007, published 2009).

What was measured:
[1] = molecular target: T1, HDAC6 (Homo sapiens, UniProt Q9UBN7); test: Fluorescence-based HDAC enzyme assay, recombinant HDAC6; type: biochemical; settings: recombinant human HDAC enzyme in vitro; read-out: IC50 (μM) HD6
T1 construct: HDAC6 and 8 were cloned as full length N-terminally His-tagged protein; His tag (N); made in house; host or cells: Sf-9 insect cells (baculovirus)
T1 sequence (Q9UBN7 1-1215): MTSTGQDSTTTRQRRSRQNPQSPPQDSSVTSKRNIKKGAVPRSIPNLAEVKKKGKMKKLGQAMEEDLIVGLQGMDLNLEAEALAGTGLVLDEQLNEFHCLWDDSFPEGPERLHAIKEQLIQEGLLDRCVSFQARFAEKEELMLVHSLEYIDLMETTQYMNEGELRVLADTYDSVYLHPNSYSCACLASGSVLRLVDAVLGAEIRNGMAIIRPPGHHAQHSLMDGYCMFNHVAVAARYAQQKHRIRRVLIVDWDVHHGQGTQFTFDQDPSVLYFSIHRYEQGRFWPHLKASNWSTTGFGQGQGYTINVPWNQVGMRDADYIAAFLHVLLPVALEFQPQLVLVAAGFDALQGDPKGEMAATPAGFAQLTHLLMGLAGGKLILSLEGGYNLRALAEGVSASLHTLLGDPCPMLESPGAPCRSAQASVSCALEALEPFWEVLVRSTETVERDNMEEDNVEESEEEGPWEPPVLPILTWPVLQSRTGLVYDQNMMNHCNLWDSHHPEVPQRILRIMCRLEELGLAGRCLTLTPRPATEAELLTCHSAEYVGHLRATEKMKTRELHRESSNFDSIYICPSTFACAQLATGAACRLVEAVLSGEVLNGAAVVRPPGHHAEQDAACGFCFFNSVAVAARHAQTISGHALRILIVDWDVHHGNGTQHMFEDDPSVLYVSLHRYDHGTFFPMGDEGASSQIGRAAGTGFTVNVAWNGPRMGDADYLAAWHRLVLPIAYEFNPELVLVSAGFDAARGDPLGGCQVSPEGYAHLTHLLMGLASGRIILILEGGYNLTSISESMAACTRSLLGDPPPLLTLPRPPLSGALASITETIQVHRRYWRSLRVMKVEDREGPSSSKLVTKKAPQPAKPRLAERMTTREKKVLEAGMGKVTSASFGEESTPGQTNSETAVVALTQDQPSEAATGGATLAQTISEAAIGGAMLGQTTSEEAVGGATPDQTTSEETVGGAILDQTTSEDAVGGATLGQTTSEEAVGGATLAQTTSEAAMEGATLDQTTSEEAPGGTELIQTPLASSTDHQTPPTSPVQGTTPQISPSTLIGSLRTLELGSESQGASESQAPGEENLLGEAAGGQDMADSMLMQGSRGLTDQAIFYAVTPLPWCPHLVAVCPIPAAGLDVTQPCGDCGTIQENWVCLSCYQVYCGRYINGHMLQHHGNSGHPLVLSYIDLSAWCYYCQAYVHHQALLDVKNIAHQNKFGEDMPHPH
From the text: (§1) cDNAs of human HDAC1-8 and 11 were generated by RT-PCR reactions using primers complementary to the 5′ and 3′ coding sequence of human HDAC gene sequences in GenBank. cDNAs corresponding to the full length human HDAC1, 2, 3 and 11 were cloned into pBlueBac4.5 vector (Invitrogen). The constructs were used to generate recombinant baculoviruses using the Bac-N-Blue™ DNA according to the manufacturer's instructions (Invitrogen). The recombinant HDAC1, 2, 3, 11 proteins produced harbor a FLAG tag at their C-termini. cDNAs encoding truncated versions of HDAC4, 5 and 7 encompassing their deacetylase domains were cloned into pDEST10 as an N-terminal hexahistidine fusion protein and recombinant baculoviruses were generated using the Bac-to-Bac™ Baculovirus expression system (Invitrogen). HDAC6 and 8 were cloned as full length N-terminally His-tagged protein. All HDAC proteins were expressed in insect Sf-9 cells (Spodoptera frugiperdai) upon infection with recombinant baculovirus. HDAC1 enzyme was purified from the Q-sepharose FF column (Amersham Pharmacia Biotech, Baie d'Urfe QC, Canada) followed by an anti-FLAG immunoaffinity column (Sigma). HDAC2, 3 and 11 were purified using Flag-antibody immunoaffinity purification. HDAC4, 5, 6, 7 and 8 were purified using either Ni-NTA resin (QIAGEN Mississauga ON, Canada) or His-Select resin (Sigma) with step washes and elution with different concentrations of imidazole in Buffer containing 25 mM Tris (or NaPO4) pH 8.0, 10% glycerol and 150 mM or 500 mM NaCl.
(§2) Recombinant HDAC enzymes were incubated with diluted compounds in assay buffer (25 mM Hepes, pH 8.0, 137 mM NaCl, 1 mM MgCl2 and 2.7 mM KCl) for 10 minutes at ambient temperatures in black 96-well plate. Boc-Lys(Ac)-AMC (for HDAC1, 2, 3, 6, and 8 enzymes), which was purchased from Bachem Biosciences Inc., (King of Prussia, Philadelphia) were added into enzyme-compound mixture and incubated at 37° C. For HDAC4, 5, 7 assays, Boc-Lys(TFA)-AMC, which was synthesized in house, was used as substrate and 0.1% BSA was added to the buffer. […] Reaction time was predetermined to ensure that reaction was linear for the incubation time. Reaction was stopped by adding a freshly prepared trypsin (1 mg/ml final concentration) with 1 μM TSA (Biomol) in assay buffer. After 30 minutes, fluorescence was measured using a fluorometer (SPECTRAMAX GeminiXS, Molecular Devices, Sunnylvale, Calif.). The 50% inhibitory concentrations (IC50) for inhibitors were determined by analyzing dose-response inhibition curves.

[2] = molecular target: T2, HDAC8 (Homo sapiens, UniProt Q9BY41); test: Fluorescence-based HDAC enzyme assay, recombinant HDAC8; type: biochemical; settings: recombinant human HDAC enzyme in vitro; read-out: IC50 (μM) HD8
T2 construct: HDAC6 and 8 were cloned as full length N-terminally His-tagged protein; His tag (N); made in house; host or cells: Sf-9 insect cells (baculovirus)
T2 sequence (Q9BY41 1-377): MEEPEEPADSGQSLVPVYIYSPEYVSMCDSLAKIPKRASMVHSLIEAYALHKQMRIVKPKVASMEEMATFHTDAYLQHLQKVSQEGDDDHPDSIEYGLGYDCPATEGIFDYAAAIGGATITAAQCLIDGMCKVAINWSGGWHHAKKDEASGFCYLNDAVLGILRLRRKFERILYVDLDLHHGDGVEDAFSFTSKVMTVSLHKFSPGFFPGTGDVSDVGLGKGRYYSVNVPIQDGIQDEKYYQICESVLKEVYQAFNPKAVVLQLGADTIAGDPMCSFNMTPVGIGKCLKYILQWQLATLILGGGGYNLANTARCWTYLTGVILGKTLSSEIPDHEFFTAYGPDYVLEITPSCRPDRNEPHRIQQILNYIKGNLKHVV
From the text: as §1, §2

| IC50 [1] | IC50 [2] | SMILES |
| --- | --- | --- |
| > 10 µM | > 10 µM | Nc1ccc(-c2ccccc2)cc1NC(=O)c1ccc(N2CCC(N)CC2)cc1 [Compound E] |
| > 10 µM | > 10 µM | Nc1ccc(-c2ccccc2)cc1NC(=O)c1ccc(N2CC[C@H](N)C2)cc1 [Compound D] |
| > 10 µM | 1.63 µM | Nc1ccccc1NC(=O)c1ccc(N2CC[C@H](Nc3cccnc3)C2)cc1 [Compound B] |

Second part, the compound before the results:

| SMILES | IC50 [1] | IC50 [2] |
| --- | --- | --- |
| CN1CCN(c2ccc(C(=O)Nc3cc(-c4ccncc4)ccc3N)cc2)CC1 [Compound G] | > 10 µM | > 10 µM |
| CN1CCN(c2ccc(C(=O)Nc3cc(-c4ccccn4)ccc3N)cc2)CC1 [Compound F] | > 10 µM | > 10 µM |
| CC(C)N1CCN(c2ccc(C(=O)Nc3cc(-c4ccncc4)ccc3N)cc2)CC1 [Compound H] | > 10 µM | > 10 µM |
